Assay [1] is described as follows: Oxytocic activity in virgin rat uterine horns. It is filed as functional.
In assay [2] the test system is Gallus gallus. In words: Avian vasodepressor activity in conscious chicken. It is filed as functional.
For assay [3], the system named is Rattus norvegicus. In words: Pressor activity in anesthetized rat. It is filed as functional.
For assay [4], the system named is Rattus norvegicus. Description: Antidiuretic activity in anesthetized rat. It is filed as functional, Urine.

Where a SMILES comes first, the peptide text is derived from it. Bridges are numbered along the chain shown (N, C = ends).

For the molecule `CC[C@H](C)[C@@H]1NC(=O)[C@H](Cc2ccc(O)cc2)NC(=O)[C@@H](N)CSSC[C@@H](C(=O)N2CCC[C@H]2C(=O)N[C@@H](CCSC)C(=O)NCC(N)=O)NC(=O)[C@H](CC(N)=O)NC(=O)[C@H](CCC(N)=O)NC1=O` (H-CYIQNCPMG-NH2; disulfide 1-6), the Activity in assay [1] came to 200 U/mg; in assay [2], 193 U/mg; in assay [3] it was 27 U/mg; in assay [4], 0.4 U/mg.

These data come from ChEMBL document CHEMBL3228008, “Synthesis and some pharmacological properties of 8-L-methionine-oxytocin” (1979).
